Like-named read-outs stand apart in the source and are kept apart here.
Experiments:
Test in all cases: biochemical
Set-up in all cases: Eurofins KinaseProfiler full panel at Km ATP, residual kinase activity (%) relative to DMSO
PRK2(h) = target: T1, PRK2(h) (Homo sapiens, UniProt Q16513)
T1 construct: gene PKN2
Method: (§1) Eurofins performed a “Full KP Panel [Km ATP], KinaseProfile” which contains 429 radiometric kinase activity assays. The remaining kinase activity (%) was determined after treatment with the compounds at a concentration of 10 µM (Cfr. supporting information). Since we could not confirm the interaction between Spautin-1 analogues and USP13, a kinase screening was performed using a set of four compounds (Spautin-1 and three analogues) to discover off-targets and identify kinases that are potentially responsible for the reduction in cell viability observed in our screen (Table 2). The KINOMEscan from Eurofins was performed (see Table S1). This screen consists of a competitive binding assay in which the DNA-tagged kinase is incubated with one of the compounds in the presence of immobilized active site binding ligands. Binding of the compounds to the kinase hampers the binding of the kinase to the ligands and this inhibition was quantified by qPCR. The residual kinase activity, which represents the percentage of kinase attached to the immobilized ligands, was determined for 428 kinases at a standard screening concentration of 10 µM of the compounds dissolved in DMSO [61].

SRMS(h) = SRMS(h) (Homo sapiens, UniProt Q9H3Y6)
Method: as §1

DDR1(h) = DDR1(h) (Homo sapiens, UniProt Q08345)
Method: as §1

SGK(h) = target: T2, SGK(h) (Homo sapiens, UniProt O00141)
T2 construct: gene SGK1
T2 sequence (O00141 1-431): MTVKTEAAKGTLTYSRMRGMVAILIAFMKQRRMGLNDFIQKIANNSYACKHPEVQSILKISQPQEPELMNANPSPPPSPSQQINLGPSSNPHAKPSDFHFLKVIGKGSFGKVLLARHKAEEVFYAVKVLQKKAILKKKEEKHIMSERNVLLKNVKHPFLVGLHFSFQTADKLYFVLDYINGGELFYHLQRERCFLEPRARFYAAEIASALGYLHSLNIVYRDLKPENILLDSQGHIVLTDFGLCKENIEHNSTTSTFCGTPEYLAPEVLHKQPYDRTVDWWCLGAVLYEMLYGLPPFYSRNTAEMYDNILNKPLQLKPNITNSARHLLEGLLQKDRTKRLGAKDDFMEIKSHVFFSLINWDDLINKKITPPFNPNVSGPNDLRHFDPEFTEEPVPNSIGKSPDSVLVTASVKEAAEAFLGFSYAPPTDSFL
Method: as §1

SAPK4(h) = target: T3, SAPK4(h) (Homo sapiens, UniProt O15264)
T3 construct: gene MAPK13
T3 sequence (O15264 1-365): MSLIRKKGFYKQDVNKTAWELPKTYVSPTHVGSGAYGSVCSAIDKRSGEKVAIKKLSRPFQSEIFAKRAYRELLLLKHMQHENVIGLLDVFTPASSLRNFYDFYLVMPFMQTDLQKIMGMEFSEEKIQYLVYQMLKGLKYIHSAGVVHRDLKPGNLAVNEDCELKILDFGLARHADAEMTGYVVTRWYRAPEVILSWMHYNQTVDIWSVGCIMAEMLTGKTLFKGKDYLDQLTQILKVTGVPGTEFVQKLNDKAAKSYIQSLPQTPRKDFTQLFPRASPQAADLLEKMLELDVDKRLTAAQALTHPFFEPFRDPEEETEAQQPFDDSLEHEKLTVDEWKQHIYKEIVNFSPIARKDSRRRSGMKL
Method: as §1

HIPK4(h) = target: T4, HIPK4(h) (Homo sapiens, UniProt Q8NE63)
T4 sequence (Q8NE63 1-616): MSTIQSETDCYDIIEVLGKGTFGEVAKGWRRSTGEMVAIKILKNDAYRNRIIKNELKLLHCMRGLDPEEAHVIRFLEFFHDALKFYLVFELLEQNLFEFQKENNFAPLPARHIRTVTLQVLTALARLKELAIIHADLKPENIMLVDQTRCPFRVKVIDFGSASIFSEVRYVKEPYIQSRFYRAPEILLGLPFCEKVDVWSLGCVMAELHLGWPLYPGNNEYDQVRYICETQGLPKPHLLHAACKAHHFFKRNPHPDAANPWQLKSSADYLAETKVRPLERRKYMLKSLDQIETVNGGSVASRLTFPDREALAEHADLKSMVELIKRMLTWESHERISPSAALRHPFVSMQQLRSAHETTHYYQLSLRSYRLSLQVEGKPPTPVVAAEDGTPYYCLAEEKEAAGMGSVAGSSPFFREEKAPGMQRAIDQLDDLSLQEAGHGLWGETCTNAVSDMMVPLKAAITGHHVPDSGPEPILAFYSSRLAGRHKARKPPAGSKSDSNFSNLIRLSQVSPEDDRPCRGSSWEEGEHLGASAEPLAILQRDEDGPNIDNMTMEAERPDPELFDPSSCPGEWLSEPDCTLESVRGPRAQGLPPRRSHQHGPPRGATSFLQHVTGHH
Method: as §1

LRRK2(h) = LRRK2(h) (Homo sapiens, UniProt Q5S007)
Method: as §1

Fms(h) = target: T5, Fms(h) (Homo sapiens, UniProt P07333)
T5 construct: gene CSF1R
Method: as §1

SRPK2(h) = SRPK2(h) (Homo sapiens, UniProt P78362)
Method: as §1

PTK5(h) = target: T6, PTK5(h) (Homo sapiens, UniProt P42685)
T6 construct: gene FRK
Method: as §1

ErbB4(h) = ErbB4(h) (Homo sapiens, UniProt Q15303)
Method: as §1

[1] = read-out: Residual activity (%) 5ay
[2] = read-out: Residual activity (%) Spautin-1 5aa
[3] = read-out: Residual activity (%) 5at
[4] = read-out: Residual activity (%) 5as

T6 sequence (P42685 whole entry): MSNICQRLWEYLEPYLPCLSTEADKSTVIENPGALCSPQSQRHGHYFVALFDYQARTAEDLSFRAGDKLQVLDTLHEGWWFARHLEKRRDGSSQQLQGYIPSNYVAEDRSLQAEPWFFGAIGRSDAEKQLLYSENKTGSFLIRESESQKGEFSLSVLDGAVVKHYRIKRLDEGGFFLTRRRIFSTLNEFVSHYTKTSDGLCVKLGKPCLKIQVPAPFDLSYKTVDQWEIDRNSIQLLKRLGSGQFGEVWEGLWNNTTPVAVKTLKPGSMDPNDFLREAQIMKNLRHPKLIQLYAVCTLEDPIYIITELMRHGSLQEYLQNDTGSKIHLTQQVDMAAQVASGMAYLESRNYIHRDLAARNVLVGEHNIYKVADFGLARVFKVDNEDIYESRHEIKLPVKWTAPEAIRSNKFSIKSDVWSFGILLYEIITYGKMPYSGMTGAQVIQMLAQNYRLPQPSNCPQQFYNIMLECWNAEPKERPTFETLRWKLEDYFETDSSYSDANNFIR
Sequence of DDR1(h) (Q08345 whole entry): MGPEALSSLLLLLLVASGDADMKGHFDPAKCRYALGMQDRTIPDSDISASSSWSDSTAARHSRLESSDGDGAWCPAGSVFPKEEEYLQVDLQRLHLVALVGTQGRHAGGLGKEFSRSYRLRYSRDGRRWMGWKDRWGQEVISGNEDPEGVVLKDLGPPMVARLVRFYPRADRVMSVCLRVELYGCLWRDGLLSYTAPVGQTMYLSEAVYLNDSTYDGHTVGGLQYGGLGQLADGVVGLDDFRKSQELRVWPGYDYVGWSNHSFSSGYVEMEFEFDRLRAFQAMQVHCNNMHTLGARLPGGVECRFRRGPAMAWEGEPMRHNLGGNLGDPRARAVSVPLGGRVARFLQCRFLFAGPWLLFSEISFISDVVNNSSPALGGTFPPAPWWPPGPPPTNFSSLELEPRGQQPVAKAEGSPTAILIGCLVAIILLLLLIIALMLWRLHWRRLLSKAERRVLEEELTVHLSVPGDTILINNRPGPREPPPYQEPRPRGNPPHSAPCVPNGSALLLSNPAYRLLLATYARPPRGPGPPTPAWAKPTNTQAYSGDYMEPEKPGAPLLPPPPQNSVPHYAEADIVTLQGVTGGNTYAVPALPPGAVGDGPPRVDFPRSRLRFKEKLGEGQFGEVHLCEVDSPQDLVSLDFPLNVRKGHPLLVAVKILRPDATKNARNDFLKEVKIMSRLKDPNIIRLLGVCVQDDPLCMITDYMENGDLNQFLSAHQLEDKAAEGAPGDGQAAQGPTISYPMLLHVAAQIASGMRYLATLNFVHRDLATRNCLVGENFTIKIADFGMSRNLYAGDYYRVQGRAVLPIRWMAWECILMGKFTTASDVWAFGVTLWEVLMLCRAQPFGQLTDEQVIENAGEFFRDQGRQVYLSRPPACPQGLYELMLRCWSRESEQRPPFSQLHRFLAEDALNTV
Sequence of SRMS(h) (Q9H3Y6 whole entry): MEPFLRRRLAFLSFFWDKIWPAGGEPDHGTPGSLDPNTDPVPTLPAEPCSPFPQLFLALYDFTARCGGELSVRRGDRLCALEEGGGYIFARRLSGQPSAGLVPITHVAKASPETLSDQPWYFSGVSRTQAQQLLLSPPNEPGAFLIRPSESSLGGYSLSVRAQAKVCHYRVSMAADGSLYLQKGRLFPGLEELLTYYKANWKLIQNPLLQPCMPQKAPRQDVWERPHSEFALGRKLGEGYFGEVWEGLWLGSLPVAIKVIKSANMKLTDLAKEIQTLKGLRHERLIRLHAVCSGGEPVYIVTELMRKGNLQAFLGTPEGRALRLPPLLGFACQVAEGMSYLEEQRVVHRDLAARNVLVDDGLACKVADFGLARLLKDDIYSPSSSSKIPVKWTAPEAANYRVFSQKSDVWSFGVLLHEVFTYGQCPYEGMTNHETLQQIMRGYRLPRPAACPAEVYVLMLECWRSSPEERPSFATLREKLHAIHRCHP
Sequence of SRPK2(h) (P78362 whole entry): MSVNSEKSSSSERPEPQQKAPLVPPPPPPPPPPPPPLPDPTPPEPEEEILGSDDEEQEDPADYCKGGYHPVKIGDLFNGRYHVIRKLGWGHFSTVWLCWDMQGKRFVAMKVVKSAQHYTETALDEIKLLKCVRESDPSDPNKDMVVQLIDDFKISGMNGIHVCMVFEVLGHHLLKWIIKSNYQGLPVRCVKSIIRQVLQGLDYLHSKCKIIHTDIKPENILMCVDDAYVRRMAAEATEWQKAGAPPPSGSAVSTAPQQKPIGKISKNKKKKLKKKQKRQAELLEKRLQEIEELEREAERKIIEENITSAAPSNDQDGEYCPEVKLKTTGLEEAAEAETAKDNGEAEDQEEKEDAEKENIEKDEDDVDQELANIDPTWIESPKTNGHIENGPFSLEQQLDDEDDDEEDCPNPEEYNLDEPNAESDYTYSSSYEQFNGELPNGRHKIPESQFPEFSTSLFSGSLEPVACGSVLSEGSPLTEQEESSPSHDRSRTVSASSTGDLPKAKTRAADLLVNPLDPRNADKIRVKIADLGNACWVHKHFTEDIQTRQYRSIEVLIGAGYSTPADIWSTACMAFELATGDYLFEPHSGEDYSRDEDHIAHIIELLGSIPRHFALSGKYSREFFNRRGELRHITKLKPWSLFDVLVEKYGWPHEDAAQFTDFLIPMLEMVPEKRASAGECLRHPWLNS
T5 sequence (P07333 whole entry): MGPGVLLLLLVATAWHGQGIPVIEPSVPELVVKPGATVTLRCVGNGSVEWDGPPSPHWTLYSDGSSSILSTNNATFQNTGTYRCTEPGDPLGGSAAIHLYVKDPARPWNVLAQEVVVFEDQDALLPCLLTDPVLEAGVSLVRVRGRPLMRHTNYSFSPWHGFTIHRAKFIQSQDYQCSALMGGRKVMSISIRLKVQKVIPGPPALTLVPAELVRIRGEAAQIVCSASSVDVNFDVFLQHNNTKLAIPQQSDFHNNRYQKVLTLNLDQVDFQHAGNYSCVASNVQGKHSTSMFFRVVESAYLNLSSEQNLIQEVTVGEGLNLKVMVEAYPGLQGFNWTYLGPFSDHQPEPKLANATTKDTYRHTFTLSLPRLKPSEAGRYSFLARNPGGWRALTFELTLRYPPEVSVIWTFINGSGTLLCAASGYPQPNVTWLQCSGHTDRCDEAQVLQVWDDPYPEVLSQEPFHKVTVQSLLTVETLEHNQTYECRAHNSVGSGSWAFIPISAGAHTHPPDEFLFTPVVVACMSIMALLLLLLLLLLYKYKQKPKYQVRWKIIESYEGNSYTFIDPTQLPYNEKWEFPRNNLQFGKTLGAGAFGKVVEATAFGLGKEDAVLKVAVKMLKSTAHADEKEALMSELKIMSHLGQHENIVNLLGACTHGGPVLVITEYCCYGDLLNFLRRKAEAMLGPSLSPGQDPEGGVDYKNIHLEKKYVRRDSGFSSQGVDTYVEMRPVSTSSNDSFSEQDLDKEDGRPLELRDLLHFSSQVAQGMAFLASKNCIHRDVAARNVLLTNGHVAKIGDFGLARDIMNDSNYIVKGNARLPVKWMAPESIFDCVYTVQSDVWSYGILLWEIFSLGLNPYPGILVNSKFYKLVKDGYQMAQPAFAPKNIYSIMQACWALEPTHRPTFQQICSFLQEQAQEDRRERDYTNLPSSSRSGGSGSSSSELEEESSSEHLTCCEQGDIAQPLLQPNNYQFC
T1 sequence (Q16513 whole entry): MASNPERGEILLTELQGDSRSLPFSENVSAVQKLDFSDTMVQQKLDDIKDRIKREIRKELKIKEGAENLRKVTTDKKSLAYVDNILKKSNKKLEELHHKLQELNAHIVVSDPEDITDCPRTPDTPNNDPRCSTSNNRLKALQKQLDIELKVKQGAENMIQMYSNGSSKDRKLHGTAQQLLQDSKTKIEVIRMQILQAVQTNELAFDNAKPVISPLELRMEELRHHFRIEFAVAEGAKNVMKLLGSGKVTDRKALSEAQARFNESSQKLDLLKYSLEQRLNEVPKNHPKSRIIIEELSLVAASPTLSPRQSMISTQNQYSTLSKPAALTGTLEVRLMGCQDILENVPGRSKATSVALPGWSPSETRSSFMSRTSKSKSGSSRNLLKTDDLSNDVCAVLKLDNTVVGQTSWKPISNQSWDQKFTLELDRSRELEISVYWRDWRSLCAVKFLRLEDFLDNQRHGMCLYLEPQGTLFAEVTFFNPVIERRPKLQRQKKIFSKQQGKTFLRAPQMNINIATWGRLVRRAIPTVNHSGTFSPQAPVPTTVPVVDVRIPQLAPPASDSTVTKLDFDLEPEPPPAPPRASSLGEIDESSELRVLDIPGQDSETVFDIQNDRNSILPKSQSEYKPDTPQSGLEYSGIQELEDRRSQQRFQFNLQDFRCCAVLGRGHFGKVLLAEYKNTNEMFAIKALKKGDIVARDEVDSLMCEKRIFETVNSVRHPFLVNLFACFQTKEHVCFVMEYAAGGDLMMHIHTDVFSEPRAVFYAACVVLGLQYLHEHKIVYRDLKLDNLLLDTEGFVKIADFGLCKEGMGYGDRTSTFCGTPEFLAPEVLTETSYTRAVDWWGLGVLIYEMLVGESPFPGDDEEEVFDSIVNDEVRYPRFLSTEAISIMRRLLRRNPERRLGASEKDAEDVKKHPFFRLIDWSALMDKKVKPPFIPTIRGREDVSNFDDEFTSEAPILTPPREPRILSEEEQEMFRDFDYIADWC

In the case of `COc1ccc2ncnc(Nc3cccc(F)c3)c2c1` [5ay, N-(3-Fluorophenyl)-6-Methoxy-4-Quinazolinamine], the remaining activity at 10 µM (PRK2(h); [1]) is reported as 95%, the remaining activity at 10 µM (SRMS(h); [1]) is reported as 78% and the remaining activity at 10 µM (DDR1(h); [1]) is reported as 7%. It also gave a remaining activity at 10 µM (SGK(h); [1]) of 82%, a remaining activity at 10 µM (SAPK4(h); [1]) of 105% and a remaining activity at 10 µM (HIPK4(h); [1]) of 42%. For the same molecule, the remaining activity at 10 µM (LRRK2(h); [1]) was 44%, the remaining activity at 10 µM (Fms(h); [1]) was 90% and the remaining activity at 10 µM (SRPK2(h); [1]) was 80%. The remaining activity at 10 µM (PTK5(h); [1]) was 64% and the remaining activity at 10 µM (ErbB4(h); [1]) was 74%.
`Fc1ccc(CNc2ncnc3ccc(F)cc23)cc1` [5aa, 6-Fluoro-N-(4-fluorobenzyl)-4-Quinazolinamine] gave a remaining activity at 10 µM (PRK2(h); [2]) of 108%, a remaining activity at 10 µM (SRMS(h); [2]) of 86% and a remaining activity at 10 µM (DDR1(h); [2]) of 65%. For the same molecule, the remaining activity at 10 µM (SGK(h); [2]) was 82%, the remaining activity at 10 µM (SAPK4(h); [2]) was 97% and the remaining activity at 10 µM (HIPK4(h); [2]) was 103%. It also gave a remaining activity at 10 µM (LRRK2(h); [2]) of 91%, a remaining activity at 10 µM (Fms(h); [2]) of 94% and a remaining activity at 10 µM (SRPK2(h); [2]) of 80%. The remaining activity at 10 µM (PTK5(h); [2]) was 85% and the remaining activity at 10 µM (ErbB4(h); [2]) was 90%.
Work on `Fc1ccc2ncnc(NCCc3ccc(Cl)cc3)c2c1` [5at, N-[2-(4-Chlorophenyl)Ethyl]-6-Fluoro-4-Quinazolinamine] yielded a remaining activity at 10 µM (PRK2(h); [3]) of 96%, a remaining activity at 10 µM (SRMS(h); [3]) of 71% and a remaining activity at 10 µM (DDR1(h); [3]) of 39%. It also gave a remaining activity at 10 µM (SGK(h); [3]) of 92%, a remaining activity at 10 µM (SAPK4(h); [3]) of 92% and a remaining activity at 10 µM (HIPK4(h); [3]) of 93%. The remaining activity at 10 µM (LRRK2(h); [3]) was 101%, the remaining activity at 10 µM (Fms(h); [3]) was 64% and the remaining activity at 10 µM (SRPK2(h); [3]) was 104%. The remaining activity at 10 µM (PTK5(h); [3]) was 95% and the remaining activity at 10 µM (ErbB4(h); [3]) was 79%.
`Fc1ccc(CCNc2ncnc3ccc(F)cc23)cc1` [5as, 6-Fluoro-N-[2-(4-Fluorophenyl)Ethyl]-4-Quinazolinamine] gave a remaining activity at 10 µM (PRK2(h); [4]) of 104%, a remaining activity at 10 µM (SRMS(h); [4]) of 84% and a remaining activity at 10 µM (DDR1(h); [4]) of 29%. For the same molecule, the remaining activity at 10 µM (SGK(h); [4]) was 86%, the remaining activity at 10 µM (SAPK4(h); [4]) was 105% and the remaining activity at 10 µM (HIPK4(h); [4]) was 92%. It also gave a remaining activity at 10 µM (LRRK2(h); [4]) of 91%, a remaining activity at 10 µM (Fms(h); [4]) of 72% and a remaining activity at 10 µM (SRPK2(h); [4]) of 87%. For the same molecule, the remaining activity at 10 µM (PTK5(h); [4]) was 84% and the remaining activity at 10 µM (ErbB4(h); [4]) was 84%.

From article PMC7827406, “Structure–Activity Relationship (SAR) Study of Spautin-1 to Entail the Discovery of Novel NEK4 Inhibitors” (International Journal of Molecular Sciences, 2021)
